Measured values reported in patent US7312248B2, “Control of parasites in animals by the use of novel trifluoromethanesulfonanilide oxime ether derivatives” (Schering-Plough Animal Health Corporation, priority 2004, dated 2007).
Like-named read-outs stand apart in the source and are kept apart here.

Experiments:
Assay type in all cases: in vivo
[1] = tested on: cat flea (Ctenocephalides felis); assay: whole plant or invertebrate; details: Ctenocephalides felis, Laboratory 1 A data
Outline: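 Adult C. felis (3-7 days post-emergence; 15 per flask, at least 4 replicates) exposed to a glass flask base dried 24 h after coating with compound in acetone at 1.26 μg/cm^2. Held at 25±1 °C, 75±5% humidity; mortality (immobile or unable to right) scored at 8, 24 and/or 48 h as percentage.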

[2] = tested on: Brown Dog Tick (Rhipicephalus sanguineus); assay: Rapid screening protocol for topical application on brown dog ticks; details: 48 h; Laboratory 2 F data
[3] = tested on: Brown Dog Tick (Rhipicephalus sanguineus); assay: Dose response protocol for topical application on brown dog ticks (LD50); details: 24 h mortality
Description: e) Dose response protocol for topical application on brown dog ticks (Rhipicephalus sanguineus): The test determines the level of insecticidal activity of sample compounds or formulations when applied topically on brown dog ticks. Sample compounds were stored prior to use in a freezer (−5±1° C.), unless otherwise specified.
• Mortality: A tick is defined as dead after it gives no apparent response when touched lightly or gently breathed upon, while observed for 30 seconds. • LD50 (Lethal Dose 50): The dose of a topically applied treatment at which 50% of the dog ticks are killed. • Reference compound: To assess an experimental compound for significant acaricidal activity a single dose level is chosen, which is based upon known results from previous experiments using a commercially available active i.e., a reference compound. The reference compound selected is one in common use, and one that has a similar mode of action against the Brown Dog Tick (i.e., the test species). • Recovery container: A recovery container consists of a 500 ml round plastic container measuring 115 mm diameter and 70 mm height, with a tight fitting lid that has 10 small (˜1 mm) holes inserted for air exchange. A 90 mm diameter piece of filter paper was placed on the bottom of the container and moistened with 1 mL of de-stilled water.
Adult, mixed sex, Brown Dog Ticks (Rhipicephalus sanguineus) were reared as follows: (i) cultured, (ii) transferred unfed, to a testing laboratory, and (iii) then maintained under controlled conditions (i.e., temp. 18°±2° C., humidity 75±5% RH). The ticks used were selected for vigor prior to testing, i.e., capable of actively walking and responsive to being touched or gently breathed upon.
During the testing, the temperature was maintained at 25±1° C., and the humidity was ambient. Seven dose levels (concentrations) of sample compound, in the form of serial dilutions in acetone, were derived from a pilot study and covered a range that produced very low to very high mortality. Groups of ten ticks were treated topically (on the abdomen) with 1 μL of a single dose level of the sample compound. Each test was replicated four times, i.e., employing a total of 40 ticks per dose level of each sample compound. As a control, ten ticks were treated with solvent only (acetone) for each test. Following the treatment, the ticks were held in recovery containers maintained under appropriate rearing conditions for 24 hours. Mortality resulting from the treatments was recorded at 24 hours. […] Press, London (1971).]

[4] = tested on: Haemonchus contortus; assay: Haemonchus contortus larvacidal (larval development) assay; details: 144 h, read-out: Haemonchus contortus LD99
Outline: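 Nematode eggs placed on agar containing compound (12 two-fold dilutions, final 0.024–50 μg/ml) and left 6 days to develop to L3. LD99 is the lowest concentration inhibiting development of 99% of larvae, derived from well titre (2^n−1) and top concentration.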

[5] = 8 h, read-out: C. felis Mortality (%) 8 h, 8 h
[6] = 24 h, read-out: C. felis Mortality (%) 24 h, 24 h

| SMILES | mortality at 1.26 µg/cm2, 1.26 µg/cm2 [1, 5] | mortality at 1.26 µg/cm2, 1.26 µg/cm2 [1, 6] | R. sanguineus Mortality (%) 48 h [2] | R. sanguineus LD50 [3] | IC99 [4] |
| --- | --- | --- | --- | --- | --- |
| CC/C(=N\OCc1ccc(C(F)(F)F)cc1)c1cc(Cl)ccc1NS(=O)(=O)C(F)(F)F [Compound 9] | 86% | 98% | 95% | 2.7 μg/tick | 0.6 µg/mL |
| CC/C(=N\OCc1ccc(Cl)cc1)c1cc(Cl)ccc1NS(=O)(=O)C(F)(F)F [Compound 11, N-{4-chloro-2-[1-(4-chlorobenzyloxyimino)propyl]phenyl}trifluoromethanesulfonamide] | 87% | 100% | 97% | 2.5 μg/tick | 0.7 µg/mL |
